Ten compounds from publication PMC8942850, “Boron clusters as broadband membrane carriers” (Nature, 2022) can be followed below.

Where two headings read alike, the source gives them in different places. Residues, ends and D or L forms follow the SMILES beside them.

Test [1] is described as follows: HPTS/DPX transport assay in zwitterionic EYPC vesicles. The class given is in vitro ADME. More on the design: key to Et: Et = Ymax × (pEC50/ft); pEC50 = −log EC50. As to conditions: for Et transport efficiency: Et = Ymax × (pEC50/ft), ft = 19.8 so that WR7 equals 10.0, B12Br12^2− (40 μM) carrier, 5% error (SD) unless stated; for Ymax (%) maximal activity, transport of cargo / EC50: cargo concentration varied, B12Br12^2− (40 μM) as common carrier, EYPC⊃HPTS/DPX vesicles, pH 7.4, Hill analysis, 10% error (SD) unless stated, n.t. = no detectable transport; for Ymax (%) maximal activity, transport of cargo: 13 µM lipid, 10 mM Tris, 107 mM NaCl, HPTS fluorescence; for EC50: read-out: EC50 (μM) effective cargo concentration to reach 50% of Ymax. The method, then:
The well-established HPTS/DPX assay, which uses 8-hydroxypyrene-1,3,6-trisulfonate (HPTS) and p-xylene-bis-pyridinium (DPX), was implemented to monitor peptide-transport activation (Fig. 2a). […] A surfactant (Triton X-100) was added at the end of the experiment (t = 600 s) to release all vesicle content and normalize the fluorescence intensity data.
Fig. 2 Carrier activity obtained from the HPTS/DPX assay. a, Schematic representation of the transport of otherwise impermeable analytes facilitated by superchaotropic cluster anions with encapsulated HPTS/DPX probe/quencher pair used for signalling. […] Concentrations of carrier and cargo, when fixed, were 40 and 20 µM, respectively, unless explicitly stated. Source data
A thin lipid film was prepared by evaporating a lipid solution with a stream of nitrogen and then dried in vacuo overnight.
Fluorescence intensities were normalized to fractional emission as I(t) = (It − I0)/(I∞ − I0), where I0 = It before cluster addition and I∞ = It after lysis.
In the activator measurements, in which different activators were tested with the same cargo, the activator efficiency (Ea) is determined from their ability to activate the transport of an impermeable cargo molecule and is characterized by Ymax, its maximal activity, and EC50, the effective activator concentration. A potent activator reaches high Ymax at low EC50. To reflect both factors, the activator efficiency is defined as Ea = Ymax × (pEC50/fa), where pEC50 is the negative logarithm of EC50.
In the transport measurements, in which different types of cargo were tested with the same activator, the transport efficiency (Et) reports on the sensitivity of the cargo for being transported and is described by Ymax, the maximal activity, and EC50, the effective cargo concentration. An easily accessible cargo reaches high Ymax at low EC50. The transport efficiency is defined as a composition of both parameters according to Et = Ymax × (pEC50/ft), where pEC50 is the negative logarithm of EC50.
Extended Data Fig. 3 Transport activity. a, Transport activity, Y, in EYPC⊃HPTS/DPX vesicles as a function of cluster concentration at constant cargo concentration (WR7, 20 µM). b, Transport activity, Y, for B12Br12^2− (40 µM) in EYPC⊃HPTS/DPX vesicles as a function of the concentration of different cargo types; red lines correspond to the resulting fit with the Hill equation. Source data

The next test concerns HeLa cells. The test can be described thus: MTT viability with MMAF in absence or presence of B12Br12^2−. The format is cell-based. The note with it: for mean_viability: cluster 0, mean of three technical replicates; for IC50: MMAF. The procedure:
The incubation mixtures were replaced with DMEM + 10% FBS + 0.5 mg ml^–1 MTT. For the viability assays in the presence of B12Br12^2− or R8, HeLa, GT1-7, ARPE-19 and A549 cells were seeded the day before in 96-well plates at 6,000 cells per well. Cells were incubated with B12Br12^2− or R8 dissolved in HKR buffer for 3 h and, thereafter, incubated for 24 h with complete medium before incubating with complete medium and 0.5 mg ml^−1 MTT. For viability studies in the presence of MMAF, HeLa cells were incubated with MMAF and B12Br12^2− diluted in DMEM (without serum or antibiotics) for 3 h. Cells were washed with 0.1 mg ml^−1 heparin and further incubated for 21 h in complete medium and 2 h in complete medium containing 0.5 mg ml^−1 MTT. For all types of assays, after 2 h of incubation, the medium was carefully removed, and formazan crystals dissolved by addition of DMSO. The absorbance at 570 nm was measured with a plate reader (Tecan Infinite F200Pro) and the data normalized to the value of untreated cells (100% viability). Data were analysed with R (v. 4.0.3)[54].
Solid points indicate mean ± s.d. of three technical replicates. […] Cross-bars indicate mean ± s.d. of three independent experiments (two with technical triplicates, one with technical duplicates); values obtained in each experiment are represented by different shapes. c, Viability […] Solid points indicate mean ± s.d. of three technical replicates. d, Corresponding IC50 values of MMAF. Cross-bars indicate mean ± s.d. of four independent experiments, each with technical triplicates; each experiment is represented by a different shape. e, E. coli Top10 viability in the presence of different concentrations of kanamycin A monosulphate (0–3.5 μg/mL) and B12Br12^2− (0–1,000 μM) in LB broth at 37 °C; data are mean ± s.d. of triplicate measurements. Source data

Take `N[C@@H](Cc1c[nH]c2ccccc12)C(=O)O` [Tryptophan]: in test [1], the Et is recorded as 9.6; the Et transport efficiency amounted to 9.6; the “Ymax (%) maximal activity, transport of cargo” value (“Ymax (%) maximal activity” below) was 72%; the EC50 stood at 2.4 µM.
In the case of `N[C@@H](Cc1ccccc1)C(=O)O` [Phenylalanine], in test [1], the Et transport efficiency is reported as 0.5 ± 0.2; the “Ymax (%) maximal activity” value is reported as 10 ± 4%; the EC50 was 109 µM. This compound registered an Et in test [1] (Fig.2 d, per analyte (cargo)) of 0.5.
The corresponding values for protamine are 10.0, 76%, 2.4 µM and 10.
As for phalloidin [reference compound], in test [1], the Et turned out to be 2.3; the Et transport efficiency was found to be 2.3 ± 0.3; the “Ymax (%) maximal activity” value amounted to 90 ± 10%; the EC50 was 310 ± 70 µM.
The corresponding values for `CC1(C)S[C@@H]2[C@H](NC(=O)[C@H](N)c3ccccc3)C(=O)N2[C@H]1C(=O)O` [Ampicillin, ampicillin, reference compound] are 4.5, 4.5, 74% and 63 µM.
For `Cc1ncc(C[n+]2csc(CCO)c2C)c(N)n1` [Vitamin B1], in test [1], the Et transport efficiency is recorded as 6.5; the “Ymax (%) maximal activity” value is given as 73%; the EC50 turned out to be 16.6 µM. The Et in test [1] (Fig.2 d, per analyte (cargo)) is 6.5.
Consider `CC(=O)OCC[N+](C)(C)C` [Acetylcholine, acetylcholine], for which, in test [1], the Et transport efficiency is reported as 7.0; the “Ymax (%) maximal activity” value is listed as 75%; the EC50 stood at 13.8 µM. This compound gave an Et in test [1] (Fig.2 d, per analyte (cargo)) of 7.
The corresponding values for `CNC(=C[N+](=O)[O-])NCCSCc1ccc(CN(C)C)o1` [Ranitidine, reference compound] are 3.9, 70%, 75.9 µM and 3.9.
Regarding `CC(=O)O[C@H]1C[C@@H]2CC[C@@H]3[C@H](CC[C@@]4(C)[C@H]3C[C@H]([N+]3(C)CCCCC3)[C@@H]4OC(C)=O)[C@@]2(C)C[C@@H]1N1CCCCC1` [Vecuronium, reference compound], in test [1], the Et was 3.5; the Et transport efficiency amounted to 3.5; the “Ymax (%) maximal activity” value came out at 64%; the EC50 turned out to be 50.6 µM.
With `CC[C@H](C)[C@@H]([C@@H](CC(=O)N1CCC[C@H]1[C@H](OC)[C@@H](C)C(=O)N[C@@H](Cc1ccccc1)C(=O)O)OC)N(C)C(=O)[C@@H](NC(=O)[C@@H](NC)C(C)C)C(C)C` [MMAF, monomethyl auristatin F] (HELM PEPTIDE1{[meV].V.[CC[C@H](C)[C@@H]([C@@H](CC(=O)[*:2])OC)N(C)[*:1]].[CO[C@H]([C@@H](C)C(=O)[*:2])[C@@H]1CCCN1[*:1]].F}$$$$V2.0), the mean_viability was 103.936 in the test on HeLa cells (MMAF 39.0625 nM) and 83.7598 with HeLa cells (MMAF 78.125 nM). The percent_viability in the test with HeLa cells (MMAF 39.0625 nM, cluster 0, technical replicate 1) was found to be 103.03; in the test on HeLa cells (MMAF 39.0625 nM, cluster 0, technical replicate 2), 107.013; with HeLa cells (MMAF 39.0625 nM, cluster 0, technical replicate 3), 101.765; with HeLa cells (MMAF 78.125 nM, cluster 0, technical replicate 1), 94.8234. For the same compound, the IC50 in the test on HeLa cells (cluster 0, 3 h in DMEM + 21 h medium, experiment_2, read-out: IC50) came out at 1210 nM; in the test with HeLa cells (cluster 0, 3 h in DMEM + 21 h medium, experiment_3, read-out: IC50), 1290 nM; in the test with HeLa cells (cluster 0, 3 h in DMEM + 21 h medium, experiment_4, read-out: IC50) it was 1410 nM; in the test on HeLa cells (cluster 0, 3 h in DMEM + 21 h medium, mean of four independent experiments, read-out: mean_IC50), 1210 nM; in the test with HeLa cells (cluster 5 µM as printed, 3 h in DMEM + 21 h medium, experiment_1, read-out: IC50) it was 512 nM; in the test on HeLa cells (cluster 5 µM as printed, 3 h in DMEM + 21 h medium, experiment_2, read-out: IC50) it was 709 nM. Also, the IC50 in the test on HeLa cells (cluster 5 µM as printed, 3 h in DMEM + 21 h medium, experiment_3, read-out: IC50) is 905 nM; in the test on HeLa cells (cluster 5 µM as printed, 3 h in DMEM + 21 h medium, experiment_4, read-out: IC50), 870 nM; in the test on HeLa cells (cluster 10 µM as printed, 3 h in DMEM + 21 h medium, experiment_1, read-out: IC50), 467 nM; in the test on HeLa cells (cluster 10 µM as printed, 3 h in DMEM + 21 h medium, experiment_2, read-out: IC50) it was 568 nM; with HeLa cells (cluster 10 µM as printed, 3 h in DMEM + 21 h medium, experiment_3, read-out: IC50), 660 nM; with HeLa cells (cluster 10 µM as printed, 3 h in DMEM + 21 h medium, experiment_4, read-out: IC50), 583 nM. The IC50 in the test on HeLa cells (cluster (B12Br12^2−) 5 mM as printed, 3 h in DMEM + 21 h medium, mean of four independent experiments, read-out: mean_IC50) was determined as 749 nM; in the test on HeLa cells (cluster (B12Br12^2−) 10 mM as printed, 3 h in DMEM + 21 h medium, mean of four independent experiments, read-out: mean_IC50), 569 nM.
